Assays:
[1] = molecular target: T1, Rma-TDE (Rhodothermus marinus, UniProt B3FQS5, V103T/M128D/M131E); assay: stopped-flow UV/visible kinetics of heme carbene formation; format: biochemical; details: read-out: K1 (pseudo-Michaelis constant); ferrous protein, anaerobic, pH 8.6, 100 mM KCl, 20 mM CHES, 5 °C, ethanol present; no acceptor; single-turnover metallocarbenoid formation; covalent heme adduct
T1 construct: gene cytC; engineered triple variant TDE of c-type cytochrome; synthetic gene, periplasmic expression from pSHT in E. coli T7 Express
T1 sequence (B3FQS5 entry or part of it V103T/M128D/M131E): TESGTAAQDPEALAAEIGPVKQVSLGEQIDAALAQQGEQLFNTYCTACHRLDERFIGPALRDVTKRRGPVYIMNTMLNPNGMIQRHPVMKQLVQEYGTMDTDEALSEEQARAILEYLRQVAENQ

[2] = test system: T2, C45; assay: as above; format: biochemical, synthetic construct; details: ferrous protein, anaerobic, pH 8.6, 100 mM KCl, 20 mM CHES, 5 °C, ethanol present; no acceptor; single-turnover metallocarbenoid formation; covalent heme adduct; read-out: K1 (pseudo-Michaelis constant)
T2 construct: de novo 4-helix bundle with covalently attached heme C

SMILES: CCOC(=O)C=[N+]=[N-] [EDA]
- Km [1]: 490 µM
- Km [2]: 74 µM

Reference: article PMC6983366, “A de novo peroxidase is also a promiscuous yet stereoselective carbene transferase” (Proceedings of the National Academy of Sciences of the …, 2020)
